The values below come from patent US12268672B2, “PPARδ activator” (JAPAN SCIENCE AND TECHNOLOGY AGENCY, priority 2018, dated 2025).

Data set [1] concerns angptl4, pdk4 and cpt1a genes. Briefly: Quantitative PCR of genes whose expression is induced by PPARδ in C2C12 cells. Particulars: 10 μM compound (A-4), 16 hours, relative to Hprt, n=3. Format: cell-based, mouse. As to the method: The effect of compound (A-4) on the expression of the gene whose expression is induced by PPARδ was investigated. Specifically, compound (A-4) was added to mouse skeletal muscle-derived myoblast cell line C2C12 cells, and the expression levels of the angptl4, pdk4 and the cpt1a genes, whose expression is induced by PPARδ (NPL 12), were measured. In addition, the Hprt gene was used as an endogenous control, and GW0742 was used as a positive control for PPARδ activation.
First, C2C12 cells were seeded on a 24-well plate (1×10^5 cells/well) and cultured until 80-90% confluent. DMEM containing 10% bovine serum and 1% antibiotic was used as the culture medium. After culturing for 36 hours, when the target cell density was reached, the entire medium was replaced with a serum-free DMEM medium containing each concentration of compound (A-4), and the cells were cultured for 16 hours (n=3). After culturing, the medium was discarded, a trizol reagent (manufactured by Invitrogen) for RNA extraction was directly added to each well to lyse the cells, and then the total RNA was extracted by ethanol precipitation. Using the obtained total RNA as a template, cDNA was synthesized using the reverse transcriptase “Superscript” (manufactured by […]).
Quantitative PCR was performed using the obtained cDNA as a template. The cDNA of the template, the primer that amplifies each gene to be measured, and the polymerase mix “ssoFast EvaGreen Supermix” (manufactured by Biorad) for quantitative PCR were mixed. Analysis was performed using a real-time PCR detection system “CFX connect (registered trademark)” (manufactured by Biorad).
From the obtained gene expression data, the expression level of each gene was divided by the expression level of the endogenous control gene to calculate the relative expression level.

Data set [2] has as its system PPARδ. Briefly: Luciferase assay with GAL4-Ppard and MH2004 reporter in CV1 cells. Particulars: for Light emission intensity (RLU) Average: 10 μM of each compound in DMSO, 12 hours; for Relative emission intensity Average: 10 μM of each compound, DMSO control defined as 1, n=3. Format: cell-based. As to the method:
Among the compounds (1-1-4), the effects of compound (B-1), compound (B-2), and compound (B-3) on the transcriptional regulation of PPARδ were investigated. The effects on the transcriptional activity of PPARδ were measured by performing a luciferase assay on the cells treated with 10 μM of each compound dissolved in DMSO. Specifically, CV1 cells, which are cultured cells derived from African green monkey kidneys, were seeded on a 24-well plate (1×10^5 cells/well) and cultured until they became 70% confluent. DMEM containing 10% fetal bovine serum and 1% antibiotic was used as the culture medium. […] Then, the collected cells were lysed in a cell lysis buffer, suspended with a luminescent substrate (firefly luciferin), and the luminescence of the suspension was measured with a luminometer. In addition, the remaining suspension was mixed with Renilla luciferin and the amount of luminescence was measured with a luminometer. The result of the amount of light emitted by Renilla luciferin was used as the intrinsic control of gene transfer. Finally, the amount of luminescence of firefly luciferin was calculated as a light emission intensity (RLU) by dividing by the amount of luminescence of Renilla luciferin. The relative emission intensity of the reaction solution treated with each compound was determined as the transcriptional activation ability of PPARδ in each compound treatment, where the light emission intensity of the reaction solution to which an equal amount of DMSO was added (control) was defined as 1. The relative emission intensities were all 1.1 or more in the reaction solutions to which the compounds were added, and the transcriptional activity of PPARδ was increased. […] The effect of the obtained compound (A-4) on PPARδ activity was investigated. […] However, when the addition amount was 50 μM or more, the cells died and it was impossible to measure the transcription activity of PPARδ.

The subject of data set [3] is C2C12 cells. Briefly: Oxygen consumption rate (OCR) of C2C12 cells, extracellular flux analyzer. Particulars: 100 μM metformin or 10 μM GW501516 for 24 hours; for OCR after FCCP addition: compared to DMSO-treated cells. Format: cell-based, mouse. The procedure:
PPARδ is known to induce the expression of lipid metabolism-related genes and enhance β-oxidation of fatty acids, especially in skeletal muscle. The PPARδ agonist is expected to have an effect of increasing mitochondrial activity. […] Specifically, using C2C12 cells, the oxygen consumption rate (OCR: Oxygen Consumption Rate) of the cells was measured by a cell metabolism-measuring device (extracellular flux analyzer manufactured by Agilemt Technologies Inc.).
In this metabolic measurement, four inhibitors were used to force changes in intracellular metabolism (FIG. 14). First, oligomycin, which inhibits Complex V of the electron transport chain, was added. […] Next, the uncoupling agent FCCP (Carbonyl cyanide-p-trifluoromethoxyphenylhydrazone) was added. FCCP forcibly discharges hydrogen ions in the mitochondrial membrane to the outside of the membrane to eliminate the proton concentration gradient. Since a proton concentration gradient is required to produce ATP, the TCA cycle and electron transport chain are maximally activated when the gradient is forcibly eliminated by FCCP. This makes it possible to measure the maximum respiration rate of cells. It is known that OCR at this time is further increased in cells in which fatty acid oxidation is enhanced. Finally, rotenone and antimycin were added. Rotenone inhibits the electron transport chain complex I, and antimycin inhibits complex III.

In data set [4] the test system is recruitment of PPARδ to PPRE. Briefly: Chromatin immunoprecipitation of FLAG-PPARδ in differentiated C2C12-PPARδ cells. The class given is cell-based, mouse. The settings on record: 100 μM metformin or 1 μM GW501516, day 6 of differentiation, IgG control set as 1.
Procedure: First, C2C12-PPARδ cells, in which FLAG-tagged PPARδ (FLAG-PPARδ) was constitutively over-expressed in C2C12 cells were prepared. […] The treated cells were subjected to chromatin immunoprecipitation (Conventional ChIP) using an antibody that recognizes the FLAG tag.
In data set [5] the test system is CV1 cells. Briefly: Cell death observed in the CV1 luciferase assay. The class given is cell-based. Particulars: transcription activity impossible to measure. The procedure:
Specifically, CV1 cells, which are cultured cells derived from African green monkey kidneys, were seeded on a 24-well plate (1×10^5 cells/well) and cultured until they became 70% confluent. DMEM containing 10% fetal bovine serum and 1% antibiotic was used as the culture medium. After reaching the desired cell density, the entire medium was removed, and a mixture obtained by mixing 2 μL of MH2004 (plasmid encoding a firefly luciferase gene having a Gal4 activation sequence upstream: 100 ng/μL), 1 μL of pRL-CMV (plasmid encoding the Renilla reniformis luciferase gene directly under the CMV promoter: 100 ng/μL), 2 μL of GAL4-Ppard (plasmid encoding Gal4-DNA binding region fused with PPARδ gene: 100 ng/μL) and 1.5 μL of PEI (polyethylenimine: manufactured by Invitrogen) with 45 μL culture medium “Opti-MEM” (registered trademark) (manufactured by Thermo Fisher Scientific) was added to each well, and the cells were cultured for about 36 hours.
The effect of the obtained compound (A-4) on PPARδ activity was investigated. Specifically, a luciferase assay was carried out in the same manner as in Example 8 except that compound (A-4) dissolved in DMSO (0.1%) was added to the reaction system as a test substance (n=3). […] However, when the addition amount was 50 μM or more, the cells died and it was impossible to measure the transcription activity of PPARδ.

Data set [6] concerns C57BL/6 mice. Briefly: Final exercise tolerance test on treadmill (NOS50). Format: in vivo. Particulars: 25 mg/kg intraperitoneal. As to the method:
For the metformin-non-administered group, an equal volume of PBS was intraperitoneally administered instead of the metformin/PBS solution.
The training for the final exercise tolerance test, in which the speed at start was 15 m/min and increased by 1 m/min every 10 minutes, and the running time after the speed reached 20 m/min was 10 minutes (1 hour in total), was performed 5 times a week for a total of 4 weeks using a treadmill device.
First, twenty 10-week-old male C57BL/6 mice were divided into 4 groups (5 mice per group). […] In addition, in order to average the motivation for exercise and exercise preference of individual mice in each group, the first exercise tolerance test was performed after training acclimatization to rank the mice, and the mice were divided into 4 groups so that the test results were even. Furthermore, in the test after the training period, the exercise tolerance was evaluated in such a manner that the running time was set as the time until the number of electrode contacts during the test reached 50 (number of shocks: NOS50), the speed at the start was set as 15 m/min and increased by 1 m/min every 10 minutes, and when the speed reached the maximum speed of 30 m/min, the running at the maximum speed was performed until NOS50 was reached.

The target of data set [7] is T1, endogenous PPARα (Homo sapiens, UniProt Q07869).
T1 construct: endogenous in cells; host or cells: HepG2
T1 sequence (Q07869 1-468): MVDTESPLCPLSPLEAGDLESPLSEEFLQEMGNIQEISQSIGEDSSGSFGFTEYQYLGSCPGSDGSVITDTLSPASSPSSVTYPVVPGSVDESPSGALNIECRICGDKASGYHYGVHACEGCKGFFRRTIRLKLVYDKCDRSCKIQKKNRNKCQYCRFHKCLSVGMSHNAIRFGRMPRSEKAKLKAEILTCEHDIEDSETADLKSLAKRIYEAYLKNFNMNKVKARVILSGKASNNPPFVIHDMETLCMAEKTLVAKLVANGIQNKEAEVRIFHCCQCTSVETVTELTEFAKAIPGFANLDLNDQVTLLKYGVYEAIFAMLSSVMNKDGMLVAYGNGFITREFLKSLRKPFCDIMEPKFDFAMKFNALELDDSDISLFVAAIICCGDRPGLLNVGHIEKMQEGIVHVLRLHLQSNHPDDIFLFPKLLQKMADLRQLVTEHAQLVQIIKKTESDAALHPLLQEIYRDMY
Briefly: Affinity purification using Met-beads and HepG2 cell extract, binding to PPARα. The settings on record: HepG2 cell extract. The procedure: […] is a member of the nuclear receptor superfamily, with PPARα and […] as the other two family members. Affinity purification was performed using the Met-beads and HepG2 cell extract to verify the binding to endogenous PPARα.

Data set [8] concerns the target human PPARδ (Homo sapiens, UniProt Q03181). The settings on record: in the presence of PPARδ complex (hPPARδ, PGC1α, RXRα).
For data set [9], the system named is endogenous AMPK. Briefly: Affinity purification using Met-beads and HepG2 cell extract, binding to AMPK. Further details: species or system human. The settings on record: HepG2 cell extract.

Each structure is given as a SMILES string. Where a name gives a salt, the structure may show the parent alone.

Sequence of human PPARδ (Q03181 whole entry): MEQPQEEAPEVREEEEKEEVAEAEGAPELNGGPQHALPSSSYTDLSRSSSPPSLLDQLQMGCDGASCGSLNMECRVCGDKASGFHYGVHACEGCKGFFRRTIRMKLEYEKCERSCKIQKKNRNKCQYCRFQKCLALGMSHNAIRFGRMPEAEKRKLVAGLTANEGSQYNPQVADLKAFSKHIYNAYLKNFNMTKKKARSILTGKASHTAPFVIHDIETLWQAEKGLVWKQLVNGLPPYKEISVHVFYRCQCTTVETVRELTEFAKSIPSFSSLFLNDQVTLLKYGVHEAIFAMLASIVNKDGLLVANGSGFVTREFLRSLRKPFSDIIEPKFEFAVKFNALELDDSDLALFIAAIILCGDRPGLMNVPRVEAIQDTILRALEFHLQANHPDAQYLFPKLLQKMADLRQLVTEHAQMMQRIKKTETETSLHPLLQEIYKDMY
Sequence of human PPARδ (P19793 whole entry partner): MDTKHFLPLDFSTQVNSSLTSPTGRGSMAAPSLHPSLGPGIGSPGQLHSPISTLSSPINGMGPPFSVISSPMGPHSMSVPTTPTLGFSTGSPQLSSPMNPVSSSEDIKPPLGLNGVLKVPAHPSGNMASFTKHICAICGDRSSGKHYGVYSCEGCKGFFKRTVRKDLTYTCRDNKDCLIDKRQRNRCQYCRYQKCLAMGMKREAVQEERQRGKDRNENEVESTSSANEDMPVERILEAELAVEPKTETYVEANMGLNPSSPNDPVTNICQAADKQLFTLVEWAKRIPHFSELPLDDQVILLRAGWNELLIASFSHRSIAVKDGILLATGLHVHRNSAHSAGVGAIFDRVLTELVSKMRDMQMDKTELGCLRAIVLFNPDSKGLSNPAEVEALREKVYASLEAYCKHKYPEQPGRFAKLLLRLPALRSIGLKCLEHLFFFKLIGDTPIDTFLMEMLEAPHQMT
Sequence of human PPARδ (Q9UBK2 whole entry partner): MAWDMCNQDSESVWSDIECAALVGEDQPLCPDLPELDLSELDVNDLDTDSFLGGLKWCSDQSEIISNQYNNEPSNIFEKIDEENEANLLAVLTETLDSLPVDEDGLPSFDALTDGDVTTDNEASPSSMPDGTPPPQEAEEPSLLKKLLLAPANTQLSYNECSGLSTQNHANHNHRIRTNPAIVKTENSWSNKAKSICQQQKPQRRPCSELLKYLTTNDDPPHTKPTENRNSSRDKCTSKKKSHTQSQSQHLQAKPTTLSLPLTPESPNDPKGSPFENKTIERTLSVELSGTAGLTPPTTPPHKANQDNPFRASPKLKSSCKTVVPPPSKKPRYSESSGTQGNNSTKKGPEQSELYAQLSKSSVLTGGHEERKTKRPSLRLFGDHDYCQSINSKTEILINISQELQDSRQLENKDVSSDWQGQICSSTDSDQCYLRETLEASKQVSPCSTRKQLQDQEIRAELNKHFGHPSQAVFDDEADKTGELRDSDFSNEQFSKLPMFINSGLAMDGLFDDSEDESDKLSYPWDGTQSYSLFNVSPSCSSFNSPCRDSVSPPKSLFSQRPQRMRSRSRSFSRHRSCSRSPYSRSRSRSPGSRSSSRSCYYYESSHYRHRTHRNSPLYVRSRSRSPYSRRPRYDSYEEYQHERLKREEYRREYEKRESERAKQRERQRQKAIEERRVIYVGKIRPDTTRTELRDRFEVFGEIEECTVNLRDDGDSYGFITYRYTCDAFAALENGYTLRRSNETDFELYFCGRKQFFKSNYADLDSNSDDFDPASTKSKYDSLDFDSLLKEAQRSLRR

For the compound `Cc1cc(SCc2sc(-c3ccc(C(F)(F)F)c(F)c3)nc2C)ccc1OCC(=O)O` [GW0742], in [1], the “expression level of the angptl4 gene” value is listed as “increased”, the “expression level of the cpt1a gene” value is “increased” and the “expression level of the pdk4 gene” value was “increased”.

As for `N=C(N)NCc1ccc(COCc2ccccc2)cc1` [compound (B-1), N-({4-[(benzyloxy)methyl]phenyl}methyl) guanidine hydrobromide], the “Light emission intensity (RLU) Average” value in [2] (n=3) is on record as 250467. For the same compound, the “Relative emission intensity Average” value in data set [2] is reported as 1.12.

As to `Cc1cc(SCc2sc(-c3ccc(C(F)(F)F)cc3)nc2C)ccc1OCC(=O)O` [GW501516], in data set [3], the “base OCR before the inhibitor treatment” value is given as “did not change” and the “OCR after FCCP addition” value is given as “increase in OCR”. Moreover, the “recruitment of PPARδ in the vicinity of PPRE on promoters of Angptl4, Pdk4, Plin2 and Ucp3 genes” value in data set [4] is “recruited”.

As for `COc1cc(CNC(=N)N)ccc1OCc1ccccc1` [compound (B-3)], the “Light emission intensity (RLU) Average” value in [2] (n=3) was 457033. In data set [2], the “Relative emission intensity Average” value came out at 2.04.

Take `Cc1cc(SCc2sc(-c3ccc(C(F)(F)F)c(F)c3)nc2C)ccc1CNC(=N)N` [compound (A-4), 1-{4-[({2-[3-fluoro-4-(trifluoromethyl)phenyl]4-methylthiazole-5-yl}methyl)thio]-2-methylbenzyl}guanidine]: in data set [1], the “expression level of the angptl4 gene” value was “increased”, the “expression level of the cpt1a gene” value is listed as “increased” and the “expression level of the pdk4 gene” value was “increased”. Also, the “transcriptional activity of PPARδ (relative transcriptional activation ability)” value in [2] (depending on the amount added, DMSO (0.1%), n=3) is given as “tended to increase”. The “addition amount at which the cells died” value in [5] is not below 50 µM.

As to `CN(C)C(=N)N=C(N)N` [metformin], in [3], the “base OCR before the inhibitor treatment” value was “did not change” and the “OCR after FCCP addition” value was “increase in OCR”. For the same compound, the “exercise tolerance, metformin administration without training” value in data set [6] (4 weeks, compared with control group) is “did not show an improvement in exercise tolerance”. For the same compound, the “exercise tolerance, training + metformin administration” value in data set [6] (training 5 times a week for 4 weeks, compared with training group) was “higher exercise tolerance than the training group”. For the same compound, the “binding between metformin and PPARα” value in data set [7] was “not detected”. For the same compound, the “activation ability compared with GW501516” value in data set [8] is “about the same as that of GW501516”. The “binding between metformin and AMPK” value in [9] was “not detected”.
